Reference: the kinase profiling compilation of Christmann-Franck et al. (2016)

Assays:
Test in all cases: KINOMEscan competition binding
Details in all cases: compound 10.0 µM
ADCK3 (human) = ADCK3 (human) (UniProt Q8NI60)
BRSK2 (human) = BRSK2 (human) (UniProt Q8IWQ3)
CDK14 (human) = CDK14 (human) (UniProt O94921)
CDK15 (human) = CDK15 (human) (UniProt Q96Q40)
CDK16 (human) = CDK16 (human) (UniProt Q00536)
CDK18 (human) = CDK18 (human) (UniProt Q07002)
CDKL1 (human) = CDKL1 (human) (UniProt Q00532)
CIT (human) = CIT (human) (UniProt O14578)
CSF1R (human) = CSF1R (human) (UniProt P07333)
CSK (human) = CSK (human) (UniProt P41240)
CSNK1A1 (human) = CSNK1A1 (human) (UniProt P48729)
CSNK1D (human) = CSNK1D (human) (UniProt P48730)
EPHA5 (human) = EPHA5 (human) (UniProt P54756)
MAK (human) = MAK (human) (UniProt P20794)
MAP2K7 (human) = MAP2K7 (human) (UniProt O14733)
MAP3K4 (human) = MAP3K4 (human) (UniProt Q9Y6R4)
MAP3K6 (human) = MAP3K6 (human) (UniProt O95382)
MAP3K7 (human) = MAP3K7 (human) (UniProt O43318)
MAPK13 (human) = MAPK13 (human) (UniProt O15264)
MAPK14 (human) = MAPK14 (human) (UniProt Q16539)
MAPK7 (human) = MAPK7 (human) (UniProt Q13164)
MYO3B (human) = MYO3B (human) (UniProt Q8WXR4)
PAK6 (human) = PAK6 (human) (UniProt Q9NQU5)
PDGFRB (human) = PDGFRB (human) (UniProt P09619)
PI4KB (human) = PI4KB (human) (UniProt Q9UBF8)
PIK3CA (human) = PIK3CA (human) (UniProt P42336)
PIK3CB (human) = PIK3CB (human) (UniProt P42338)
PLK3 (human) = PLK3 (human) (UniProt Q9H4B4)
PTK2B (human) = PTK2B (human) (UniProt Q14289)
PTK6 (human) = PTK6 (human) (UniProt Q13882)
RAF1 (human) = RAF1 (human) (UniProt P04049)
RPS6KA1 KD2 (human) = RPS6KA1 KD2 (human) (UniProt Q15418)
STK32A (human) = STK32A (human) (UniProt Q8WU08)
STK33 (human) = STK33 (human) (UniProt Q9BYT3)
TAOK1 (human) = TAOK1 (human) (UniProt Q7L7X3)
TNK2 (human) = TNK2 (human) (UniProt Q07912)
TNNI3K (human) = TNNI3K (human) (UniProt Q59H18)
TXK (human) = TXK (human) (UniProt P42681)
TYRO3 (human) = TYRO3 (human) (UniProt Q06418)
ULK1 (human) = ULK1 (human) (UniProt O75385)

CSNK1A1 (human), sequence (P48729 whole entry, looked up): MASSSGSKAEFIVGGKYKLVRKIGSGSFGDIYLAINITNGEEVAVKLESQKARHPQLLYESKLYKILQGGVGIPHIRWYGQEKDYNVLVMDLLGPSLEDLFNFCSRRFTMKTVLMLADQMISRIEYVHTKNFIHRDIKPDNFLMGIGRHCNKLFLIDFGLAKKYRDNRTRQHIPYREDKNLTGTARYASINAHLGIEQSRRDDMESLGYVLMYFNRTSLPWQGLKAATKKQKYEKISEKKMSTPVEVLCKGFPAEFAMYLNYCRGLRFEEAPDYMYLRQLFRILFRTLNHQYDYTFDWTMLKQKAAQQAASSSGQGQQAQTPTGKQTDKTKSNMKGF
CDKL1 (human), sequence (Q00532 whole entry, looked up): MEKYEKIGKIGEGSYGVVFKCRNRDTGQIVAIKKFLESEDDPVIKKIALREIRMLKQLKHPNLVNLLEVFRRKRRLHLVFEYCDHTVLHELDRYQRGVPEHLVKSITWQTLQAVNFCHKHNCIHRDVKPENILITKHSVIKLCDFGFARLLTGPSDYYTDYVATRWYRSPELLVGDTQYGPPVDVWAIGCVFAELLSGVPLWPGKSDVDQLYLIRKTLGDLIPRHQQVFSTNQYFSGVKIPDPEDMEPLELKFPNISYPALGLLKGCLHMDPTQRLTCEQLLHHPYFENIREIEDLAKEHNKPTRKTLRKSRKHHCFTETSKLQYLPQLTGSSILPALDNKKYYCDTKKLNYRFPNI
TYRO3 (human), sequence (Q06418 whole entry, looked up): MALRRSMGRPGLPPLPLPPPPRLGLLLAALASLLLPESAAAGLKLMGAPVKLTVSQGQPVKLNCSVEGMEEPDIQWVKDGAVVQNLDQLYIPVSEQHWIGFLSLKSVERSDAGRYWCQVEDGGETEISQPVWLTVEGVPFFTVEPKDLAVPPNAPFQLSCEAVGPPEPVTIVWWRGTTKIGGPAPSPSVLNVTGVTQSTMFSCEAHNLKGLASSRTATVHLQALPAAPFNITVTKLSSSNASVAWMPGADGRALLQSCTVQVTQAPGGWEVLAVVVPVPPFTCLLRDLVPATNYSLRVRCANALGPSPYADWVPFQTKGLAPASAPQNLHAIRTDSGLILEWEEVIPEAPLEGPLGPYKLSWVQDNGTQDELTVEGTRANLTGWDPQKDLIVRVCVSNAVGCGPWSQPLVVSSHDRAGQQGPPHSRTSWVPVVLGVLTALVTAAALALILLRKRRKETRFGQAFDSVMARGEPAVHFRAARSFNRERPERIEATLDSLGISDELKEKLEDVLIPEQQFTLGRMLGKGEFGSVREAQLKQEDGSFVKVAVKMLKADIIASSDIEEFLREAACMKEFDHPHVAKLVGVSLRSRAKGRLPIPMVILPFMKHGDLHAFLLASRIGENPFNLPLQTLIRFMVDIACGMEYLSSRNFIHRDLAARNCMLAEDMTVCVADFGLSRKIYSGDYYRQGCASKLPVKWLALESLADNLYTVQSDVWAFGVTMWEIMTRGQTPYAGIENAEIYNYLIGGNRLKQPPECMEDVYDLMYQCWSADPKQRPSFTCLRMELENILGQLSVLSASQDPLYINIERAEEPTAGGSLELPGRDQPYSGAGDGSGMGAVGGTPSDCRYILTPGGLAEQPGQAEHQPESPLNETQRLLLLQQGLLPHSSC
MAP3K6 (human), sequence (O95382 whole entry, looked up): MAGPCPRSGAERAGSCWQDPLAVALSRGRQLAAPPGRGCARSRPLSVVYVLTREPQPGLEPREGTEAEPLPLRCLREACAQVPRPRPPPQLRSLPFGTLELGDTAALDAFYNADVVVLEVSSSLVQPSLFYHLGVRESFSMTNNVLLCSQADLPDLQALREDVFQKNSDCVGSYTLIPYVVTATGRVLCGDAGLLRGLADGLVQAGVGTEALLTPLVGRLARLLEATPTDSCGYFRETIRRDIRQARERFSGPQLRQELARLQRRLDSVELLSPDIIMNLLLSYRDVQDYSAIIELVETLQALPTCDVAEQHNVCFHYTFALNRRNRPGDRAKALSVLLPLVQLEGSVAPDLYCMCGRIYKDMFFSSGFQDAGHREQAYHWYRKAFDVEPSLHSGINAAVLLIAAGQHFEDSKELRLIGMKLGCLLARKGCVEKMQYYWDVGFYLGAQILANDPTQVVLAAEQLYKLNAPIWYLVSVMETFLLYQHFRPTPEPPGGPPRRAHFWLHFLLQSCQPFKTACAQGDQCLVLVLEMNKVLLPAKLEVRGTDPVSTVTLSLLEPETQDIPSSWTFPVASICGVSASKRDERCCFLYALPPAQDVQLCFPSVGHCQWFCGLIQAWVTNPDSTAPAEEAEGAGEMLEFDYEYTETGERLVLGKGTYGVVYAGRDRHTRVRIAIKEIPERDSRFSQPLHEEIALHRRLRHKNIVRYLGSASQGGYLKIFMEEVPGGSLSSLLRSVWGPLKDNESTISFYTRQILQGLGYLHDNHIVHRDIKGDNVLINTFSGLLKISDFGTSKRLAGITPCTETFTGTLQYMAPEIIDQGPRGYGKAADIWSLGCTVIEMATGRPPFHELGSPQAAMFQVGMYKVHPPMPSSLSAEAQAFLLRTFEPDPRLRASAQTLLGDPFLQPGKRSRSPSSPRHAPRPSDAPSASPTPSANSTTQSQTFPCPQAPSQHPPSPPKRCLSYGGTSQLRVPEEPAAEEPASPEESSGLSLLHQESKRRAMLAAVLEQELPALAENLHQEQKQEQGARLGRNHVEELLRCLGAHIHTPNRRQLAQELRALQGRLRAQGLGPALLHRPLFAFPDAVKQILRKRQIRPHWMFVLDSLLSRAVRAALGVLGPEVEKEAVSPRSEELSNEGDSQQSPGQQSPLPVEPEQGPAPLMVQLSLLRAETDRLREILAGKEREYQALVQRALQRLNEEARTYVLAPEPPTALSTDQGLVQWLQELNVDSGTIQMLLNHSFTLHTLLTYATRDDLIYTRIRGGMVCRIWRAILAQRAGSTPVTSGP
PAK6 (human), sequence (Q9NQU5 whole entry, looked up): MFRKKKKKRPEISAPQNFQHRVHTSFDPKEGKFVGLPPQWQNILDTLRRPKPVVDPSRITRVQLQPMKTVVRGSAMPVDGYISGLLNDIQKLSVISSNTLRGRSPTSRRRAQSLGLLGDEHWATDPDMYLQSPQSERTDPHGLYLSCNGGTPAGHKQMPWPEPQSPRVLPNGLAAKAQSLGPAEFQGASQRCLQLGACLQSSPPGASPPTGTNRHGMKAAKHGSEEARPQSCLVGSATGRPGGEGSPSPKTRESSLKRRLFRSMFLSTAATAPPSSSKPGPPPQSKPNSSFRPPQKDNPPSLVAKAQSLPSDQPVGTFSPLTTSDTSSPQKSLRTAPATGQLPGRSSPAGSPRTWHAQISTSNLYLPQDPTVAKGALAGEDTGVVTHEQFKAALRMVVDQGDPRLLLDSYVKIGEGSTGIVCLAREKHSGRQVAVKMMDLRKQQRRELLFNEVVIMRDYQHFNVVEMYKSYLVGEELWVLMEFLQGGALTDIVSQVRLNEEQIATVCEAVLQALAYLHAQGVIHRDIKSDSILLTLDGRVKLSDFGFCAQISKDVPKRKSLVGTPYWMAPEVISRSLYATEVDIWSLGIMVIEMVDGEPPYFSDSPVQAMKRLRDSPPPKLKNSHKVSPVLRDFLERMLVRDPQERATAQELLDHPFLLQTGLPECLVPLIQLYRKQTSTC
RAF1 (human), sequence (P04049 whole entry, looked up): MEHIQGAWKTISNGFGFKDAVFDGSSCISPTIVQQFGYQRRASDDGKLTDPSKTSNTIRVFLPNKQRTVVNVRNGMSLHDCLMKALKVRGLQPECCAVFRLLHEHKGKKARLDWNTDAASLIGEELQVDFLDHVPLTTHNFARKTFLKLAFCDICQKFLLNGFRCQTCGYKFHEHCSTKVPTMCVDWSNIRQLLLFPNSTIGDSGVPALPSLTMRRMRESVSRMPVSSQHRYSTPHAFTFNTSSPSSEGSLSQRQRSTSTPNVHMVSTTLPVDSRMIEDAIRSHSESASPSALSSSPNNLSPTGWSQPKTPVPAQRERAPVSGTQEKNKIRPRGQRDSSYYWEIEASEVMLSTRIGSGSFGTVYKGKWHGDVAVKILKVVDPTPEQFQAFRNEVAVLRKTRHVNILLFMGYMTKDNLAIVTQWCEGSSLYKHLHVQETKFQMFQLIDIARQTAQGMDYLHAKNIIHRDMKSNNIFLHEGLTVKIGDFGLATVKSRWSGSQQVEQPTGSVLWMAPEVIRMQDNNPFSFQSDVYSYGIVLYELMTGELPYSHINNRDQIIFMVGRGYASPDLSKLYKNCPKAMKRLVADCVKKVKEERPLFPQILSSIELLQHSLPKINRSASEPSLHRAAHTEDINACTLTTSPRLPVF
MAPK13 (human), sequence (O15264 whole entry, looked up): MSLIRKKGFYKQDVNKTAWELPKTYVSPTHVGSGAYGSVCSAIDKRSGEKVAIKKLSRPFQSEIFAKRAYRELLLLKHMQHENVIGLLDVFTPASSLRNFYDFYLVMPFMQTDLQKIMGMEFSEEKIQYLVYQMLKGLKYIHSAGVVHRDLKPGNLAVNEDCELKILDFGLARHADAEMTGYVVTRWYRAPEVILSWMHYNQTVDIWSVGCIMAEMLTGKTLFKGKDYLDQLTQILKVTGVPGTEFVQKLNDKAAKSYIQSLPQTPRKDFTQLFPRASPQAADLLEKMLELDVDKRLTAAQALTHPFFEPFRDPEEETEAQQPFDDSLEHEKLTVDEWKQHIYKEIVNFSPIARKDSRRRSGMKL
CSNK1D (human), sequence (P48730 whole entry, looked up): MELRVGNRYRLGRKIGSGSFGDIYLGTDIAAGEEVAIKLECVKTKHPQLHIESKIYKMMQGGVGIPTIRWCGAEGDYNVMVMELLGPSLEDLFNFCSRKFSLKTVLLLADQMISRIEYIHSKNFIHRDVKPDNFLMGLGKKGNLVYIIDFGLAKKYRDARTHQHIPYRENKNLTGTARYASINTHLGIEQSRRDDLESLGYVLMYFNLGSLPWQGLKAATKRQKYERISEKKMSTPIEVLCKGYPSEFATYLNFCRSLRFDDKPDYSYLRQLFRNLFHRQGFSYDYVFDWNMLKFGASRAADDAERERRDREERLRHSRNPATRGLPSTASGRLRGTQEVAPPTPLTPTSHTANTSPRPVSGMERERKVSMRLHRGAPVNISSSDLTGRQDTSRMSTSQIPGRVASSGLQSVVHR

SMILES	kinase still bound, per cent of control (ADCK3 (human))	kinase still bound, per cent of control (BRSK2 (human))	kinase still bound, per cent of control (CDK14 (human))	kinase still bound, per cent of control (CDK15 (human))	kinase still bound, per cent of control (CDK16 (human))	kinase still bound, per cent of control (CDK18 (human))	kinase still bound, per cent of control (CDKL1 (human))	kinase still bound, per cent of control (CIT (human))	kinase still bound, per cent of control (CSF1R (human))	kinase still bound, per cent of control (CSK (human))	kinase still bound, per cent of control (CSNK1A1 (human))	kinase still bound, per cent of control (CSNK1D (human))	kinase still bound, per cent of control (EPHA5 (human))	kinase still bound, per cent of control (MAK (human))	kinase still bound, per cent of control (MAP2K7 (human))	kinase still bound, per cent of control (MAP3K4 (human))	kinase still bound, per cent of control (MAP3K6 (human))	kinase still bound, per cent of control (MAP3K7 (human))	kinase still bound, per cent of control (MAPK13 (human))	kinase still bound, per cent of control (MAPK14 (human))	other results
O=C1Nc2ccc(I)cc2/C1=C/c1cc(Br)c(O)c(Br)c1	100%	100%	95%	100%	89%	100%	84%	5.6%	71%	92%	81%	72%	91%	100%	98%	95%	100%	67%	100%	36%	kinase still bound, per cent of control (MAPK7 (human)): 5%; kinase still bound, per cent of control (MYO3B (human)): 8.6%; kinase still bound, per cent of control (PAK6 (human)): 73%; kinase still bound, per cent of control (PDGFRB (human)): 5.5%; kinase still bound, per cent of control (PI4KB (human)): 0.5%; kinase still bound, per cent of control (PIK3CA (human)): 85%; kinase still bound, per cent of control (PIK3CB (human)): 100%; kinase still bound, per cent of control (PLK3 (human)): 86%; kinase still bound, per cent of control (PTK2B (human)): 81%; kinase still bound, per cent of control (PTK6 (human)): 85%; kinase still bound, per cent of control (RAF1 (human)): 0.65%; kinase still bound, per cent of control (RPS6KA1 KD2 (human)): 12%; kinase still bound, per cent of control (STK32A (human)): 91%; kinase still bound, per cent of control (STK33 (human)): 94%; kinase still bound, per cent of control (TAOK1 (human)): 54%; kinase still bound, per cent of control (TNK2 (human)): 74%; kinase still bound, per cent of control (TNNI3K (human)): 76%; kinase still bound, per cent of control (TXK (human)): 100%; kinase still bound, per cent of control (TYRO3 (human)): 88%; kinase still bound, per cent of control (ULK1 (human)): 100%
CN(C)C/C=C/C(=O)Nc1cccc(Nc2ncc3c(n2)N(C)c2ccccc2C(=O)N3C)c1	74%	4.2%	100%	84%	95%	100%	83%	86%	0.1%	82%	26%	52%	99%	100%	97%	73%	94%	6.2%	61%	100%	kinase still bound, per cent of control (MAPK7 (human)): 0.1%; kinase still bound, per cent of control (MYO3B (human)): 100%; kinase still bound, per cent of control (PAK6 (human)): 66%; kinase still bound, per cent of control (PDGFRB (human)): 38%; kinase still bound, per cent of control (PI4KB (human)): 87%; kinase still bound, per cent of control (PIK3CA (human)): 54%; kinase still bound, per cent of control (PIK3CB (human)): 32%; kinase still bound, per cent of control (PLK3 (human)): 72%; kinase still bound, per cent of control (PTK2B (human)): 74%; kinase still bound, per cent of control (PTK6 (human)): 37%; kinase still bound, per cent of control (RAF1 (human)): 96%; kinase still bound, per cent of control (RPS6KA1 KD2 (human)): 39%; kinase still bound, per cent of control (STK32A (human)): 100%; kinase still bound, per cent of control (STK33 (human)): 8.9%; kinase still bound, per cent of control (TAOK1 (human)): 0.15%; kinase still bound, per cent of control (TNK2 (human)): 4.4%; kinase still bound, per cent of control (TNNI3K (human)): 28%; kinase still bound, per cent of control (TXK (human)): 11%; kinase still bound, per cent of control (TYRO3 (human)): 100%; kinase still bound, per cent of control (ULK1 (human)): 0.15%
